In US7544664B2, “Sequences facilitating penetration of a substance of interest” (priority 2003, dated 2009):
Where two headings read alike, the source gives them in different places. Values belong to the compound of their own block, whether it stands above or below them. Where a SMILES comes first, the peptide text is derived from it. The star is where a group is joined. X2 = O=C(CCCCCN1C(=O)CC(*)C1=O)OCCOC(=O)CCCc1ccc(N(CCCl)CCCl)cc1

Experiments:
[1] = tested on: HT29: human colon carcinoma; assay: cells; format: cell-based; settings: for IC50: HT29 colon, read-out: IC50 values
Experimental: HT29: human colon carcinoma, low P-gp expression (origin: ATCC #HTB-38)
(§1) Viability assays were performed. Briefly, cells are seeded in 96-well plates and incubated with increasing concentrations of drugs (i) for 1 hour then cells are rinsed and incubated with fresh medium without drugs for 48 hours, or (ii) for 48 hours. A WST-1 test (from Roche) was performed and IC50 values (drug concentration that inhibits 50% of cell viability) were estimated from sigmoidal regressions.
(§2) DPV15-E-Chl conjugate was compared to non-conjugated Chl and 5FUra for the inhibition of in vitro cell proliferation of human carcinoma and leukemia cells. We calculated IC50 values=drug concentration that inhibits 50% of cell viability.

[2] = tested on: K562: human chronic myelogenous leukemia; assay: Viability assay (WST-1); format: cell-based
Experimental: K562: human chronic myelogenous leukemia (CML) (origin: ATCC #CCL-243).
as §1, §2

[3] = tested on: HCT116: human colon carcinoma; assay: cells; format: cell-based; settings: for more efficient than Chl: HCT116 colon carcinoma; for IC50: HCT116 colon, read-out: IC50 values
Experimental: HCT116: human colon carcinoma (origin: ATCC #CCL-247)
as §1, §2

[4] = Stability in H2O+0.1% TFA overnight at room temperature; format: physicochemical; settings: protected from light, Chl 0.1 mg/ml, DPV15-E-Chl 0.5 mg/ml in H2O+0.1% TFA
Experimental: After overnight incubation at room temperature and protected from light, both Chl (0.1 mg/ml in H2O+0.1% TFA) and DPV15-E-Chl (0.5 mg/ml in H2O+0.1% TFA) are degraded (50% degradation).

[5] = Solubility in water / aqueous solutions
[6] = tested on: OVCAR-3: human ovary carcinoma; assay: cells; format: cell-based; settings: Homo sapiens; OVCAR-3 ovary carcinoma; 1 h incubation + 72 h post-incubation
Experimental: OVCAR-3: human ovary carcinoma (origin: ATCC #HTB-161)
as §1, with “drugs” for “drugs (i)”, “72” for “48 hours, or (ii) for 48”
(§3) We tested the inhibition of in vitro cell proliferation of human carcinoma cells, and we calculated IC50 values=drug concentration that inhibits 50% of cell viability.

[7] = tested on: NCI-H1299: human non small cell lung carcinoma; assay: cells; format: cell-based; settings: Homo sapiens, NCI-H1299; H1299 NSCLC; 1 h incubation + 72 h post-incubation
Experimental: NCI-H1299: human non small cell lung carcinoma (NSCLC) (origin: ATCC #CRL-5803)
as §1, with “drugs” for “drugs (i)”, “72” for “48 hours, or (ii) for 48”
as §3

HeLa cells = assay: Poly-L-Lys inhibition of the internalization of DPV-PO conjugates; format: cell-based; settings: inhibition of DPV-PO internalization (25 μg/ml, 4 h) in HeLa cells
Experimental: In order to verify this hypothesis, we tested the inhibition of DPV-PO internalization in HeLa cells in the presence of Poly-L-Lysine in the incubation medium: positively charged poly-L-Lys should bind to the negative charges of the cell surface, and prevent the binding of DPVs.
HeLa cells cultivated on glass labtek slides for 24 hours were pre-incubated with the indicated concentrations of poly-L-Lys for 1 hour at 37° C. Cells were then incubated for 4 hours in the presence of DPV-PO conjugates at 25 μg/ml in cell culture medium containing the same quantity of poly-L-Lys. Internalized PO was quantified after extensive treatment with trypsin to eliminate surface bound material, and subsequent cell lysis. Results are given in picogram PO per 1000 cells.

[8] = HT29 colon carcinoma, short exposure

Compound: CC(C)C[C@H](NC(=O)[C@H](CCCNC(=N)N)NC(=O)[C@H](CO)NC(=O)[C@H](CCC(N)=O)NC(=O)[C@H](CCCNC(=N)N)NC(=O)[C@H](CCC(=O)O)NC(=O)[C@H](CCCNC(=N)N)NC(=O)[C@H](CCCNC(=N)N)NC(=O)[C@@H](N)CC(C)C)C(=O)N[C@@H](CCCNC(=N)N)C(=O)N[C@@H](CCCNC(=N)N)C(=O)N[C@@H](CCC(=O)O)C(=O)N[C@@H](CCCNC(=N)N)C(=O)N[C@@H](CCC(N)=O)C(=O)N[C@@H](CO)C(=O)N[C@@H](CCCNC(=N)N)C(=O)N[C@@H](CSC1CC(=O)N(CCCCCC(=O)OCCOC(=O)CCCc2ccc(N(CCCl)CCCl)cc2)C1=O)C(=O)O (stereo partly shown) [DPV15-E-Chl] (H-LRRERQSRLRRERQSRC(X2)-OH)
more efficient than 5FUra [1, 8]: ≥ 17 fold | more efficient than Chl [1, 8]: 11 fold | IC50 ([1]; 1 h incubation + 48 h): 60 µM | IC50 ([1]; 48 h incubation): 325 µM | IC50 ([2]; 1 h incubation + 48 h): 30 µM | IC50 ([2]; 48 h incubation): 30 µM | more efficient than Chl ([2]; long exposure): 8 fold | more efficient than Chl ([2]; short exposure): ≥ 16 fold | more efficient than Chl ([3]; long exposure): 8 fold | more efficient than Chl ([3]; short exposure): 12 fold | IC50 ([3]; 1 h incubation + 48 h): 43 ± 15 µM | IC50 ([3]; 48 h incubation): 25 ± 7 µM | degradation after overnight incubation [4]: 50% | solubility [5]: ≥ 10000 µg/mL

IC50 [6]: 40 ± 20 nM | IC50 [7]: 230 ± 170 nM | Solubility in water / aqueous solutions [5]: not soluble
Compound: CC(=O)O[C@H]1C(=O)[C@@]2(C)[C@H]([C@H](OC(=O)c3ccccc3)[C@]3(O)C[C@H](OC(=O)[C@H](O)[C@@H](NC(=O)c4ccccc4)c4ccccc4)C(C)=C1C3(C)C)[C@]1(OC(C)=O)CO[C@@H]1C[C@@H]2O [Paclitaxel (Hauser), Paclitaxel]

Compound: Poly-L-Lysine
IC50 (concentration at which 50% of the maximum internalization is achieved) (HeLa cells): around 25 μg/ml

IC50 ([1]; 1 h incubation + 48 h): > 1000 µM | IC50 ([1]; 48 h incubation): 725 ± 388 µM | IC50 ([3]; 1 h incubation + 48 h): 113 ± 40 µM | IC50 ([3]; 48 h incubation): 8.5 ± 7.9 µM
Compound: O=c1[nH]cc(F)c(=O)[nH]1 [5FUra]
